Experimental data reported in PMC2999460, “Porphobilinogen Synthase from the Butterfly, Pieris brassicae: Purification and Comparative Characterization” (2007).
Each block holds one molecule with its values, some of them ahead of it.

Experiments:
[1] = target: T1, porphobilinogen synthase (PBGS) (Pieris brassicae, UniProt A0A9P0XHI4); test: enzyme activity assay (PBG formation, Ehrlich's reagent, […] nm), Lineweaver-Burk analysis; assay type: biochemical
T1 construct: gene PIBRA_LOCUS11261
T1 sequence (A0A9P0XHI4 1-333): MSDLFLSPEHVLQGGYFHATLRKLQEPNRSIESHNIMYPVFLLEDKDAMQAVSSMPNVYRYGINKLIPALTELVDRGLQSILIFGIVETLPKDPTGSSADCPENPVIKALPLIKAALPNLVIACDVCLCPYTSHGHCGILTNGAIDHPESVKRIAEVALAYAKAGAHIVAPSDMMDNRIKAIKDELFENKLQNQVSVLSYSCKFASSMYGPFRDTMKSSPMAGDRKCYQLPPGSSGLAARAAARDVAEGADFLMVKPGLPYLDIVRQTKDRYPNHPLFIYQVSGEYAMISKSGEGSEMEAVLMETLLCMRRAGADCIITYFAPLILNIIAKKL

[2] = target: porphobilinogen synthase (PBGS) from Pieris brassicae (Pieris brassicae (endogenous in adult insects)); test: native gel or EMSA; native PAGE at 4.5, 6.0, 7.5 and 9.75% polyacrylamide (Hedrick and Smith; buffer system of Davis) with reference proteins: 292.3 kDa for the holoenzyme, set against 36.5 kDa for the subunit by SDS/urea-PAGE; purified PBGS and a partially purified preparation
[3] = target: T1, porphobilinogen synthase (PBGS); test: biochemical
[4] = substrate: NCC(=O)CCC(=O)O; test: purified protein; details: zinc active site

Molecule: CC(=O)CCC(=O)O [LA, levulinic acid]
Ki [3]: 340 µM

B1: porphobilinogen synthase (PBGS) (Pieris brassicae) (protein)
chain: T1 sequence (A0A9P0XHI4 1-333)
Km [4]: 0.36 mM

The remaining lines, values ahead:

IC50 [1]: 4.5 µM
Molecule: CC(=O)CC(=O)CCC(=O)O [SA, 4,6-dioxo-heptanoic acid]

stoichiometry N [2]: 8
Molecule: porphobilinogen synthase (PBGS) from Pieris brassicae (enzyme)
